{"source": "patent US10844091B2", "about": "(priority 2017, dated 2020)", "type_in_all_cases": "in vivo", "key": {"[1]": {"test_system": "rat models with Alzheimer's disease", "assay": "Conditioned passive avoidance reflex (CPAR) test, scopolamine-induced Alzheimer's disease model", "conditions": "for AA less than in the tetrapeptide (LYS) group: donepezil 1 mg/kg; for number of animals who reached the CPAR learning criterium: % of total trained animals, criterium at least 180 sec in light area", "method": "(§1) White random-bred adult male rats weighing 200-240 g were used. Groups of 7 animals per group were formed. 1st group—control, 2nd—pathology, 3rd—comparator drug, 4th-6th—neuropeptides.\n(§2) Scopolamine was administered i.p. to the animals in all groups except for the control at a 1 mg/kg dose daily, once a day for 27 days. From the 28th day on, the animals in groups 2 and 3 were administered the comparator drug and the claimed preparation respectively over the course of 10 days. The drugs were administered daily, once a day.\n(§3) The tetrapeptides were administered i.n at a 0.1 mg/kg dose. The animals in the pathology group received 0.9% sodium chloride solution i.n. and i.p. as a placebo.\n(§4) The OF and EE tests were conducted on the 1st day, PST—on the 2nd day, CPAR—on the 1st and 10th day post treatment with the preparations. […] The antiamnesic action (AA) in the CPAR test was calculated using Butler's formula [K. S. Radionova. […] After that, the animals were removed from the experiment by administering a narcotic, followed by decapitation. The brain was extracted and weighed, and the brain weight coefficient (BWC) was calculated. Immediately after extraction, the brain was frozen in liquid nitrogen and used in subsequent biochemical and histochemical studies. Glucose levels in whole arterial (common carotid artery) and venous (venous cerebral sinus) blood were determined by the glucose oxidase test, the difference in the arterial-venous glucose content was calculated (glucose consumption marker). The levels of average weight molecules—the toxic products of cell biodegradation damaged during the disease (nucleoside derivatives, peptoids, glucuronic acid salts, etc.) in the blood serum (AWM) were calculated [A. N. Kovalevsky. Notes on the screening method of determination average weight molecules/A. N. Kovalevsky, O. Ye. Nifantiev//Lab. Science. […] 35-39]."}, "rat models with AD": {"test_system": "rat models with AD", "assay": "Porsolt swim test (PST), scopolamine-induced Alzheimer's disease model", "conditions": "AD rats; donepezil 1 mg/kg i.p., tetrapeptide (LYS) 0.1 mg/kg i.n.", "method": "as §1, §2, §3, §4"}, "[2]": {"test_system": "rat models with Alzheimer's disease", "assay": "Extrapolation escape (EE) test, scopolamine-induced Alzheimer's disease model", "conditions": "3 min test; scopolamine 1 mg/kg i.p. 27 days; donepezil 1 mg/kg i.p. 10 days, peptide (LYS) 0.1 mg/kg i.n. 10 days", "method": "as §1, §2, §3, §4"}}, "data": [{"smiles": "COc1cc2c(cc1OC)C(=O)C(CC1CCN(Cc3ccccc3)CC1)C2", "note": "(centres unmarked) [donepezil, reference compound]", "values": [{"measurement": "AA less than in the tetrapeptide (LYS) group", "setting": "[1]; 10th day", "value": 1.9, "unit": "times"}, {"measurement": "Latent period of entry into the dark area of the CPAR device, In 24 hrs.", "setting": "[1]; In 24 hrs., scopolamine + donepezil 1 mg/kg or tetrapeptide (LYS) 0.1 mg/kg i.n.", "value": "93.29 ± 26.11", "unit": "s"}, {"measurement": "Latent period of entry into the dark area of the CPAR device, In 10 days", "setting": "[1]; In 10 days, scopolamine + donepezil 1 mg/kg or tetrapeptide (LYS) 0.1 mg/kg i.n.", "value": "69.43 ± 11.10^ sec."}, {"measurement": "Latent period of entry into the dark area of the CPAR device, Initial", "setting": "[1]; Initial, scopolamine + donepezil 1 mg/kg or tetrapeptide (LYS) 0.1 mg/kg i.n.", "value": "24.00 ± 6.23", "unit": "s"}, {"measurement": "number of animals who reached the CPAR learning criterium", "setting": "[1]; first day", "value": 28.6, "unit": "%"}, {"measurement": "AA less than in the tetrapeptide (LYS) group", "setting": "[1]; first day", "value": 2.9, "unit": "times"}, {"measurement": "number of animals who reached the CPAR learning criterium", "setting": "[1]; tenth day", "value": "goes down to the level of the pathology group"}, {"measurement": "Latent period of immobilization", "setting": "rat models with AD", "value": "69.43 ± 12.64", "unit": "s"}, {"measurement": "Number of immobilization acts", "setting": "rat models with AD", "value": "9.29 ± 1.66"}, {"measurement": "% of animals succeeded", "setting": "[2]", "value": 100, "unit": "%"}, {"measurement": "Escape time", "setting": "[2]", "value": "18.86 ± 3.57", "unit": "s"}]}]}
